Assay results published in patent publication US20230218563A1, “METHODS FOR TREATING OR PREVENTING CHRONIC KIDNEY DISEASE” (Arthrosi Therapeutics, Inc., priority 2020, published 2023).
Where two headings read alike, the source gives them in different places.

What was measured:
[1] = test system: urine albumin-to-creatinine ratio (UACR); experiment: Renal function safety pharmacology study in rats, single oral dose (urine albumin, creatinine, UACR); assay type: in vivo, Sprague Dawley Rats
Description: Cageside and detailed clinical observations, body weights, water consumption, blood clinical chemistry, urine chemistry, and urinalysis were performed. Osmolality, osmolality gap, urine volume, water intake rate, fluid balance, urinary excretion, renal creatinine clearance, renal clearance, free water clearance, and fractional electrolyte clearance were calculated and evaluated. All animals were euthanized on Day 2 after scheduled observations. Blood samples for clinical chemistry analysis were collected from all the animals at 24 hours post dose prior to each scheduled euthanasia. Urine samples for clinical chemistry and urinalysis were collected from all the animals at pre-dose (˜24 hours) and 0-6 hours and 6-24 hours post-dose.

[2] = 4-week toxicity study in cynomolgus monkeys; assay type: in vivo
Excerpt: On Day 29, surviving TS animals (all animals in study) were euthanized and subjected to a full gross necropsy, which included a macroscopic examination of the external surface of the body, all orifices, cranial cavity, external surface of the brain, the thoracic, abdominal and pelvic cavities and their viscera, cervical areas, carcass and genitalia. Organs were weighed as soon as possible from all main study animals at the scheduled necropsies. Tissues from animals at the terminal sacrifice, from animals found dead or moribund-sacrificed, and gross lesions from all animals, were embedded in paraffin, sectioned, stained with hematoxylin and eosin and examined microscopically by a board certified veterinary pathologist.

[3] = Phase 1 multiple ascending dose study, plasma pharmacokinetics in healthy adult males; assay type: in vivo; conditions: male, human, oral, fasted
Excerpt: An additional 6 subjects received placebo.
Accumulation were approximately 1.3 to 1.4 fold for C. and 1.4 to 1.5 fold for AUC0.24 (Table 12 and FIG. 8).

[4] = female rats, 5 mg/kg single oral, urine 0-6 h post dose
[5] = female rats, 5 mg/kg single oral, urine 6-24 h post dose
[6] = female rats, 15 mg/kg single oral, urine 0-6 h post dose
[7] = female rats, 15 mg/kg single oral, urine 6-24 h post dose
[8] = female rats, 50 mg/kg single oral, urine 0-6 h post dose
[9] = female rats, 50 mg/kg single oral, urine 6-24 h post dose
[10] = male rats, 10 mg/kg single oral, urine 0-6 h post dose
[11] = male rats, 10 mg/kg single oral, urine 6-24 h post dose
[12] = male rats, 30 mg/kg single oral, urine 0-6 h post dose
[13] = male rats, 30 mg/kg single oral, urine 6-24 h post dose
[14] = male rats, 100 mg/kg single oral, urine 0-6 h post dose
[15] = male rats, 100 mg/kg single oral, urine 6-24 h post dose
[16] = cynomolgus monkeys, oral 10, 30 and 150 mg/kg/day, 28 days

[2H]c1c([2H])c([2H])c2c(C(=O)c3cc(Br)c(O)c(Br)c3)c(C(C)O)oc2c1[2H] (racemic) [Compound 1, (3,5-dibromo-4-hydroxyphenyl)(2-(1-hydroxyethyl)benzofuran-3-yl-4,5,6,7-d4)methanone]
% UACR change vs Ctrl [1, 4]: 140%
% UACR change vs baseline [1, 4]: 73%
UACR [1, 4]: 102.7 mg/g
UALB [1, 4]: 33.71 mg/L
UCRE [1, 4]: 0.328 g/L
% UACR change vs Ctrl [1, 5]: 19%
% UACR change vs baseline [1, 5]: 44%
UACR [1, 5]: 40.3 mg/g
UALB [1, 5]: 24.2 mg/L
UCRE [1, 5]: 0.600 g/L
% UACR change vs Ctrl [1, 6]: −53%
% UACR change vs baseline [1, 6]: −6%
UACR [1, 6]: 17.5 mg/g
UALB [1, 6]: 5.22 mg/L
UCRE [1, 6]: 0.298 g/L
% UACR change vs Ctrl [1, 7]: −41%
% UACR change vs baseline [1, 7]: 9%
UACR [1, 7]: 20.1 mg/g
UALB [1, 7]: 11.93 mg/L
UCRE [1, 7]: 0.593 g/L
% UACR change vs Ctrl [1, 8]: −38%
% UACR change vs baseline [1, 8]: −23%
UACR [1, 8]: 23.4 mg/g
UALB [1, 8]: 9.58 mg/L
UCRE [1, 8]: 0.409 g/L
% UACR change vs Ctrl [1, 9]: −21%
% UACR change vs baseline [1, 9]: −7%
UACR [1, 9]: 26.8 mg/g
UALB [1, 9]: 21.15 mg/L
UCRE [1, 9]: 0.790 g/L
% UACR change vs Ctrl [1, 10]: −62%
% UACR change vs baseline [1, 10]: −62%
UACR [1, 10]: 14.2 mg/g
UALB [1, 10]: 6.22 mg/L
UCRE [1, 10]: 0.438 g/L
% UACR change vs Ctrl [1, 11]: −32%
% UACR change vs baseline [1, 11]: 23%
UACR [1, 11]: 28.3 mg/g
UALB [1, 11]: 14.79 mg/L
UCRE [1, 11]: 0.523 g/L
% UACR change vs Ctrl [1, 12]: −59%
% UACR change vs baseline [1, 12]: −46%
UACR [1, 12]: 15.5 mg/g
UALB [1, 12]: 8.73 mg/L
UCRE [1, 12]: 0.563 g/L
% UACR change vs Ctrl [1, 13]: −28%
% UACR change vs baseline [1, 13]: 31%
UACR [1, 13]: 29.6 mg/g
UALB [1, 13]: 12.38 mg/L
UCRE [1, 13]: 0.418 g/L
% UACR change vs Ctrl [1, 14]: −63%
% UACR change vs baseline [1, 14]: −38%
UACR [1, 14]: 13.9 mg/g
UALB [1, 14]: 9.25 mg/L
UCRE [1, 14]: 0.666 g/L
% UACR change vs Ctrl [1, 15]: −32%
% UACR change vs baseline [1, 15]: 46%
UACR [1, 15]: 28.0 mg/g
UALB [1, 15]: 15.18 mg/L
UCRE [1, 15]: 0.542 g/L
NOAEL, human equivalent ([2]; cynomolgus monkey, in vivo): 600 mg
NOAEL at 28 days ([2]; cynomolgus monkey, in vivo, po): 30 mg/kg
findings after 4 week recovery period ([2]; cynomolgus monkeys, 28 days oral then 4 week recovery): No finding
liver weight ([2]; cynomolgus monkeys, male, 150 mg/kg/day, 28 days): trended higher in male at 150 mg/kg/day, but no statistical difference
clinical signs [2, 16]: No abnormal clinical signs
effect on food consumption, body weight [2, 16]: no effect
mortality [2, 16]: No mortality
Cmax ([3]; 25 mg, 25 mg once daily, Day 1): 1760 ng/mL
AUC(0-t) ([3]; 25 mg, 25 mg once daily, Day 1, read-out: AUC0-24): 21200 ng·h/mL
Tmax ([3]; 25 mg, 25 mg once daily, Day 1, read-out: Tmax (median)): 3.5 h
Cmax ([3]; 25 mg, 25 mg once daily, Day 10): 2480 ng/mL
AUC(0-t) ([3]; 25 mg, 25 mg once daily, Day 10, read-out: AUC0-24): 30800 ng·h/mL
Tmax ([3]; 25 mg, 25 mg once daily, Day 10, read-out: Tmax (median)): 2.25 h
Cmax ([3]; 50 mg, 50 mg once daily, Day 1): 3550 ng/mL
AUC(0-t) ([3]; 50 mg, 50 mg once daily, Day 1, read-out: AUC0-24): 39600 ng·h/mL
Tmax ([3]; 50 mg, 50 mg once daily, Day 1, read-out: Tmax (median)): 2 h
Cmax ([3]; 50 mg, 50 mg once daily, Day 10): 4590 ng/mL
AUC(0-t) ([3]; 50 mg, 50 mg once daily, Day 10, read-out: AUC0-24): 58200 ng·h/mL
Tmax ([3]; 50 mg, 50 mg once daily, Day 10, read-out: Tmax (median)): 2.5 h
Cmax ([3]; 75 mg, 75 mg once daily, Day 1): 5200 ng/mL
AUC(0-t) ([3]; 75 mg, 75 mg once daily, Day 1, read-out: AUC0-24): 55600 ng·h/mL
Tmax ([3]; 75 mg, 75 mg once daily, Day 1, read-out: Tmax (median)): 1.75 h
Cmax ([3]; 75 mg, 75 mg once daily, Day 10): 6770 ng/mL
AUC(0-t) ([3]; 75 mg, 75 mg once daily, Day 10, read-out: AUC0-24): 84700 ng·h/mL
Tmax ([3]; 75 mg, 75 mg once daily, Day 10, read-out: Tmax (median)): 1.5 h
